# Experimental data published in PubChem BioAssay (NCI).
#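 Values below derive from 48-hour exposures of cells grown in 96-well plates, with endpoints linearly interpolated between the two concentrations bracketing the appropriate inhibition level. At the GI50, growth is halved. At the TGI there is no net growth.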
# Assays:
# Test in all cases: NCI-60 cell line screen, 48 h
# OVCAR-3 ovarian = tested on: OVCAR-3 ovarian
# HOP-92 NSCLC = tested on: HOP-92 NSCLC
# NCI-H460 lung = tested on: NCI-H460 lung
# BT-549 breast = tested on: BT-549 breast
# 786-0 renal = tested on: 786-0 renal
# SW-620 colon = tested on: SW-620 colon
# TK-10 renal = tested on: TK-10 renal
# SF-539 CNS = tested on: SF-539 CNS
# SNB-19 CNS = tested on: SNB-19 CNS
# NCI-H522 lung = tested on: NCI-H522 lung
Structure (SMILES),GI50 (OVCAR-3 ovarian),TGI (OVCAR-3 ovarian),GI50 (HOP-92 NSCLC),TGI (HOP-92 NSCLC),GI50 (NCI-H460 lung),TGI (NCI-H460 lung),GI50 (BT-549 breast),TGI (BT-549 breast),GI50 (786-0 renal),TGI (786-0 renal),GI50 (SW-620 colon),TGI (SW-620 colon),GI50 (TK-10 renal),TGI (TK-10 renal),GI50 (SF-539 CNS),TGI (SF-539 CNS),GI50 (SNB-19 CNS),TGI (SNB-19 CNS),GI50 (NCI-H522 lung),TGI (NCI-H522 lung)
COc1ccc(F)cc1-c1ccnc2[nH]c(C3=CCN(C4CCC(CC(=O)O)CC4)CC3)cc12 (configuration not stated),0.107 µM,> 100 µM,0.0568 µM,0.666 µM,0.236 µM,> 100 µM,0.156 µM,0.903 µM,0.219 µM,37.3 µM,0.123 µM,18.3 µM,0.344 µM,> 100 µM,0.0546 µM,0.335 µM,0.152 µM,> 100 µM,0.159 µM,0.714 µM
COC(=O)[C@@H](C)C[C@H](Cc1ccccc1)NC(=O)c1csc([C@@H](C[C@H](C(C)C)N(C)C(=O)[C@@H](NC(=O)[C@H]2CCCCN2C)C(C(F)(F)F)C(F)(F)F)OC(C)=O)n1,0.021 µM,0.253 µM,0.0185 µM,1.04 µM,0.0576 µM,> 16.7 µM,0.054 µM,0.779 µM,0.0535 µM,3.53 µM,0.0673 µM,> 16.7 µM,4.6 µM,> 16.7 µM,0.0397 µM,0.154 µM,0.0658 µM,> 16.7 µM,0.0125 µM,0.264 µM
Nc1ccn(C2CC3OCC3O2)c(=O)n1 (configuration not stated),,> 100 µM,,,,> 100 µM,,> 100 µM,,> 100 µM,,> 100 µM,,> 100 µM,,> 100 µM,,> 100 µM,,> 100 µM
COc1cc2c(=O)n(CC3CCCCC3)c3c4cc[nH]c4ncc3c2cc1OC,6.66 µM,18 µM,0.137 µM,2.78 µM,2.25 µM,9.41 µM,0.807 µM,14.7 µM,1.31 µM,9.25 µM,2 µM,14.6 µM,4.66 µM,18.9 µM,0.681 µM,3.08 µM,5.16 µM,19.5 µM,1.34 µM,18.3 µM
CN(C)CCOc1ccc2c(c1)C(=O)/C(=C\c1ncc([N+](=O)[O-])n1C)C2,0.359 µM,1.26 µM,0.701 µM,3.25 µM,0.217 µM,0.808 µM,0.146 µM,0.529 µM,0.857 µM,3.39 µM,0.474 µM,4.22 µM,1.57 µM,4.8 µM,1.4 µM,3.35 µM,1.15 µM,3.18 µM,0.191 µM,0.492 µM
CCCCCCCCc1cc(O)ccc1O,15.4 µM,30 µM,4.65 µM,21.1 µM,17.3 µM,33.1 µM,10.9 µM,23.3 µM,17.5 µM,34.5 µM,21.6 µM,46.1 µM,1.46 µM,22.7 µM,15.4 µM,28.8 µM,18.5 µM,39.9 µM,5.65 µM,25.3 µM
NC(=O)c1nc(-c2ccc(Cl)c(Cl)c2)nc2ccccc12,,> 29.4 µM,,4.74 µM,,> 100 µM,,,,> 100 µM,,> 100 µM,,> 100 µM,,> 95.5 µM,,> 100 µM,,> 100 µM
CCCCOP1(=O)CC(C)=C(Cl)C(C)(OC)C1 (configuration not stated),,> 100 µM,,> 100 µM,,> 100 µM,,,,> 100 µM,,> 100 µM,,> 100 µM,,> 100 µM,,> 100 µM,,> 100 µM
O/N=C1\C(=C\c2ccc3c(c2)OCCO3)CCCC1C(NO)c1ccc2c(c1)OCCO2 (configuration not stated),,39.6 µM,,93.4 µM,,51.3 µM,,,,> 100 µM,,> 100 µM,,50.7 µM,,26.8 µM,,> 100 µM,,29.6 µM
N#C/C(=C1\OC(N)=C(c2ccc(Cl)cc2)C1=O)c1ccc(Cl)cc1,,28 µM,,32.2 µM,,34 µM,,,,29.4 µM,,25.9 µM,,41.4 µM,,27.6 µM,,39.6 µM,,24.6 µM
Oc1ccc(O)c(-n2cccn2)c1-n1cccn1,,> 100 µM,,> 100 µM,,> 100 µM,,,,> 100 µM,,> 100 µM,,> 100 µM,,> 100 µM,,> 100 µM,,73.1 µM
Cc1cc2nc(-c3ccc(O)c(O)c3)n(Cc3ccc(O)c(O)c3)c2cc1C,14.6 µM,77 µM,9.7 µM,55 µM,13.4 µM,43.1 µM,28.9 µM,> 100 µM,34 µM,> 100 µM,24.7 µM,> 100 µM,26.9 µM,82.6 µM,19.7 µM,> 100 µM,65 µM,> 100 µM,6.71 µM,23.9 µM
CS(=O)(=O)CCNCc1ccoc1-c1ccc2ncnc(Nc3ccc(OCc4ccccc4)cc3)c2c1,> 25 µM,> 25 µM,1.98 µM,> 25 µM,11.4 µM,> 25 µM,> 25 µM,> 25 µM,> 25 µM,> 25 µM,> 25 µM,> 25 µM,1.38 µM,> 25 µM,> 25 µM,> 25 µM,> 25 µM,> 25 µM,> 25 µM,> 25 µM
COc1cc([C@@H]2c3cc4c(cc3[C@@H](NCc3cccc(F)c3)C3COC(=O)[C@@H]32)OCO4)cc(OC)c1O (some centres not stated),,30.5 µM,,> 65 µM,,9.23 µM,,,,10.2 µM,,22.5 µM,,40.9 µM,,10.8 µM,,> 65 µM,,19.4 µM
CCN(CC)CCNc1ccc([N+](=O)[O-])c2nc3ccc(OC)cc3c(N)c12,,3.55 µM,,3.19 µM,,2.67 µM,,2.72 µM,,1.66 µM,,0.772 µM,,2.93 µM,,3.27 µM,,3.29 µM,,0.551 µM
COc1ccc(/C=C/C(=O)c2ccc(Nc3nc(Nc4ccc(F)cc4)nc(Nc4ccc(F)cc4)n3)cc2)cc1,26.7 µM,> 100 µM,8.8 µM,31.4 µM,13 µM,72.4 µM,14 µM,36.4 µM,6.03 µM,26.9 µM,19 µM,82.1 µM,11.8 µM,42.7 µM,23.2 µM,60.1 µM,30.9 µM,> 100 µM,8.89 µM,24.9 µM
CC1=CC(=O)N2C(OC[C@@H]2c2ccccc2)O1 (some centres not stated),,> 100 µM,,> 100 µM,,> 100 µM,,,,> 100 µM,,> 100 µM,,> 100 µM,,> 100 µM,,> 100 µM,,> 100 µM
CC(=O)/C(=C/N1CCN(C(=O)c2ccco2)C1=S)C(=O)c1ccccc1,17.2 µM,> 50 µM,11.1 µM,32.1 µM,7.04 µM,22.9 µM,5.54 µM,18.1 µM,11.2 µM,25.1 µM,6.12 µM,17 µM,10.6 µM,28.6 µM,1.09 µM,3.56 µM,16.3 µM,> 50 µM,,

Structure (SMILES),GI50 (OVCAR-3 ovarian),TGI (OVCAR-3 ovarian),GI50 (HOP-92 NSCLC),TGI (HOP-92 NSCLC),GI50 (NCI-H460 lung),TGI (NCI-H460 lung),GI50 (BT-549 breast),TGI (BT-549 breast),GI50 (786-0 renal),TGI (786-0 renal),GI50 (SW-620 colon),TGI (SW-620 colon),GI50 (TK-10 renal),TGI (TK-10 renal),GI50 (SF-539 CNS),TGI (SF-539 CNS),GI50 (SNB-19 CNS),TGI (SNB-19 CNS),GI50 (NCI-H522 lung),TGI (NCI-H522 lung)
CC1/C(=N/O)CC(c2ccccc2)N(N=O)C1c1ccccc1 (configuration not stated),,> 100 µM,,> 100 µM,,> 100 µM,,> 100 µM,,> 100 µM,,> 100 µM,,> 100 µM,,> 100 µM,,> 100 µM,,> 100 µM
CCC(C)N1CN(c2ccccc2)C2(CCN(CCCC3(c4ccc(F)cc4)OCCO3)CC2)C1=O (configuration not stated),,29.8 µM,,0.959 µM,,30.8 µM,,5.82 µM,,13.3 µM,,28.8 µM,,20.7 µM,,10.1 µM,,34.6 µM,,10.2 µM
CCOc1ccccc1NC(=O)C1=C(C)NC(C)=C(C(=O)Nc2ccccc2OCC)C1c1cccc([N+](=O)[O-])c1,,> 100 µM,,41.3 µM,,> 100 µM,,,,> 100 µM,,> 100 µM,,> 100 µM,,> 100 µM,,> 100 µM,,> 100 µM
COC(=O)c1cc(C)[nH]c2c(C)cc3nc4ccccc4c3c12,10.3 µM,22.1 µM,5.85 µM,20.7 µM,4.25 µM,22.5 µM,12.1 µM,25 µM,7.1 µM,21.4 µM,7.91 µM,27 µM,5.73 µM,19.5 µM,12.4 µM,26.4 µM,12.7 µM,29.5 µM,3.23 µM,14.5 µM
C[C@H]1CC[C@@H]2[C@@H](C)[C@H]3[C@H](C[C@H]4[C@@H]5CC=C6C[C@@H](O)CC[C@]6(C)[C@H]5CC[C@]34C)N2C1,,> 100 µM,,58.3 µM,,> 100 µM,,> 100 µM,,> 100 µM,,> 100 µM,,> 100 µM,,> 100 µM,,> 100 µM,,> 100 µM
C[C@H]1CCC2C(OC(=O)[C@@H]2CN(C)C)[C@]2(C)C(=O)C=CC12O (some centres not stated),,15 µM,,8.03 µM,,28.7 µM,,25.2 µM,,11.2 µM,,10.2 µM,,18.4 µM,,12 µM,,> 57.5 µM,,3.13 µM
CC1(C2CCC3(C)C(C2)C3Sc2ccccc2)OCCO1 (configuration not stated),,30 µM,,56 µM,,46.5 µM,,,,33.3 µM,,50.1 µM,,> 100 µM,,67.3 µM,,82.6 µM,,40.9 µM
COc1cc(CCc2ccncc2)cc(OC)c1OC,,> 100 µM,,> 100 µM,,> 100 µM,,,,> 100 µM,,> 100 µM,,> 100 µM,,> 100 µM,,> 100 µM,,> 100 µM
CCN1CCC(O)(/C=C/c2ccccc2)C(C(=O)/C=C/c2ccccc2)C1 (configuration not stated),,8.9 µM,,8.76 µM,,4.03 µM,,,,3.32 µM,,3.41 µM,,7.88 µM,,3.76 µM,,22.3 µM,,3.36 µM
COC(=O)C#CC(N)=O,,> 100 µM,,40.6 µM,,> 100 µM,,,,> 100 µM,,> 54.8 µM,,99.1 µM,,> 100 µM,,> 100 µM,,> 100 µM
C=CCO[C@H]1CC[C@@]2(C)C(CC[C@]3(C)C2CC=C2[C@@H]4[C@@H](C)C(C)CC[C@]4(C(=O)O)CCC23C)C1(C)C (some centres not stated),,29.8 µM,,32.4 µM,,36.3 µM,,,,30.6 µM,,35.4 µM,,32.2 µM,,34.1 µM,,32.2 µM,,28.4 µM
CC1=C2C3OC(=O)C(C)C3C(O)C[C@@]2(C)C(=O)CC1 (some centres not stated),,> 100 µM,,> 100 µM,,> 100 µM,,,,> 100 µM,,> 100 µM,,> 100 µM,,> 100 µM,,> 100 µM,,> 100 µM
O=C1C(=Cc2ccc(F)cc2)C(=O)c2ccccc21,,> 100 µM,,> 100 µM,,> 100 µM,,,,> 100 µM,,> 100 µM,,> 100 µM,,> 100 µM,,> 100 µM,,> 100 µM
NC1=Nc2ccccc2Sc2ccccc21,,> 100 µM,,> 100 µM,,> 100 µM,,,,> 100 µM,,> 100 µM,,> 100 µM,,> 100 µM,,> 100 µM,,> 100 µM
COC(=O)C(=O)C(C#N)c1c(Cl)cccc1Cl (configuration not stated),,> 100 µM,,> 100 µM,,> 100 µM,,,,> 100 µM,,> 100 µM,,> 100 µM,,> 100 µM,,> 100 µM,,> 100 µM
Cn1cccc1-c1cc(-c2ccccc2)nc(N)c1C#N,> 67.7 µM,> 100 µM,,,> 100 µM,> 100 µM,67.5 µM,> 100 µM,> 96.4 µM,> 100 µM,> 100 µM,> 100 µM,> 100 µM,> 100 µM,> 58.3 µM,> 100 µM,> 89.5 µM,> 100 µM,> 78.2 µM,> 100 µM
N#CC(C#N)C(c1ccccc1)c1ccccc1,,> 100 µM,,> 100 µM,,> 100 µM,,,,> 100 µM,,> 100 µM,,> 100 µM,,> 100 µM,,> 100 µM,,> 100 µM
